For assay [1], the system named is Normal human bronchial epithelial (NHBE) cells. Briefly: Cell cycle arrest and S-phase re-entry in NHBE cell culture (fluorescent S-phase labeling / FACS). Type of assay: cell-based. The procedure:
(§1) The systems and methods described herein have been tested using a well-understood cell culture experiment. […] The treated cells were then allowed to re-enter the cell cycle by removal of the CDKI from the media and washing. Re-entry of the cell cycle was experimentally confirmed by labeling the cells fluorescently in S-phase at 2, 4, 6 and 8 hours after the CDKI was removed and the cells were washed. The gene transcription profiles of cells that were sampled 2, 4, 6, and 8 hours after the removal of the CDKI, were obtained. Profiles of cells that were continuously exposed to CDKI in media were also obtained. To identify biological processes and mechanisms that were differentially activated when CDKI was removed, network perturbation amplitude scores were calculated using gene transcription profiles of the washed cells obtained at various time point. For the computation of a NPA score for the perturbation associated with the removal of CDKI, a cell cycle subnetwork that comprises 127 nodes and 240 edges, was used. It is a subnetwork of the cell proliferation network model published in […] et al. (2011, “A computable cellular stress network model for non-diseased pulmonary and cardiovascular tissue” BMC Syst Biol. Oct 19; 5:168, which is incorporated herein by reference in its entirety). […]

Assay [2] deals with cell cycle subnetwork in NHBE cells. The assay can be described thus: Network perturbation amplitude (NPA) score on the cell cycle subnetwork, from gene transcription profiles of NHBE cells. The settings on record: from 2-hour to 8-hour time point after removal of CDKI, versus cells continuously exposed to CDKI; subnetwork of 127 nodes and 240 edges. Format: cell-based, human. The procedure:
as §1

`CC(=O)c1c(C)c2cnc(Nc3ccc(N4CCNCC4)cn3)nc2n(C2CCCC2)c1=O` [PD-0332991]: the “number of cells in S-phase (FACS analysis, FIG. 17)” value in assay [1] (2, 4, 6 and 8 hours after the CDKI was removed and the cells were washed) was “increase”. For the same molecule, the “effect on cell cycle” value in assay [1] (NHBE cells exposed to the CDKI in media) is “arrests the cells in G1”. The “NPA scores (FIG. 18)” value in assay [2] is given as “increase”.

(Values after patent publication US20140214336A1, “SYSTEMS AND METHODS FOR NETWORK-BASED BIOLOGICAL ACTIVITY ASSESSMENT” (PHILIP MORRIS PRODUCTS S.A., priority 2011, published 2014).)
